# Source: patent US11351178B2, “Selective HDAC6 inhibitors” (ITALFARMACO S.P.A., priority 2017, dated 2022)
# Like-named read-outs stand apart in the source and are kept apart here.
# Tests used:
# [1] = test system: peripheral blood mononuclear cells (PBMCs); assay: Cytotoxicity on PBMCs (CellTiter 96); format: cell-based; details: PBMC, 72 h; read-out: PBMC TOXICITY (72 h)
# How it was run: (§1)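 Mitochondrial-function readout (CellTiter 96 Aqueous One) after 72 h compound exposure, begun 24 h post-seeding. Dose ranges: 697 cells, 1 to 10000 nM at 2×10^4 cells/well; PBMCs, 1.5 to 10000 nM at 5×10^5 cells/well.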
# [2] = Stability in human plasma; format: in vitro ADME; details: after 4 hours, 37° C.
# How it was run: (§2)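 Compounds incubated at 37° C in rat or human plasma at 50 μM (UV/HPLC) or 1 or 2 μM (LC-MS/MS) for 0–4 h. Reaction stopped with acidified acetonitrile on ice; percent remaining versus initial amount and plasma half-life calculated.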
# [3] = Stability to Phase I metabolism in human S9 liver fraction; format: in vitro ADME; details: human, 90 min, pH 7.4
# How it was run: (§3)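 Phase I stability in human and rat hepatic S9 at 37 °C, sampled up to 90 min. Samples were stopped with acidified acetonitrile on ice, then quantified by HPLC-UV or LC-MS/MS.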
# [4] = test system: B 697 promyelocytic cell line; assay: Cytotoxicity on 697 cell line (CellTiter 96); format: cell-based; details: 72 hours incubation, read-out: 697 TOXICITY
# How it was run: as §1
# [5] = Stability to Phase I metabolism in rat S9 liver fraction; format: in vitro ADME; details: after 90 min, 37° C.
# How it was run: as §3
# [6] = molecular target: T1, recombinant human HDAC6 (Homo sapiens, UniProt Q9UBN7); assay: Enzymatic screening on recombinant human HDAC6; format: biochemical; details: Table 2; read-out: HDAC6 IC50
# T1 sequence (Q9UBN7 1-1215): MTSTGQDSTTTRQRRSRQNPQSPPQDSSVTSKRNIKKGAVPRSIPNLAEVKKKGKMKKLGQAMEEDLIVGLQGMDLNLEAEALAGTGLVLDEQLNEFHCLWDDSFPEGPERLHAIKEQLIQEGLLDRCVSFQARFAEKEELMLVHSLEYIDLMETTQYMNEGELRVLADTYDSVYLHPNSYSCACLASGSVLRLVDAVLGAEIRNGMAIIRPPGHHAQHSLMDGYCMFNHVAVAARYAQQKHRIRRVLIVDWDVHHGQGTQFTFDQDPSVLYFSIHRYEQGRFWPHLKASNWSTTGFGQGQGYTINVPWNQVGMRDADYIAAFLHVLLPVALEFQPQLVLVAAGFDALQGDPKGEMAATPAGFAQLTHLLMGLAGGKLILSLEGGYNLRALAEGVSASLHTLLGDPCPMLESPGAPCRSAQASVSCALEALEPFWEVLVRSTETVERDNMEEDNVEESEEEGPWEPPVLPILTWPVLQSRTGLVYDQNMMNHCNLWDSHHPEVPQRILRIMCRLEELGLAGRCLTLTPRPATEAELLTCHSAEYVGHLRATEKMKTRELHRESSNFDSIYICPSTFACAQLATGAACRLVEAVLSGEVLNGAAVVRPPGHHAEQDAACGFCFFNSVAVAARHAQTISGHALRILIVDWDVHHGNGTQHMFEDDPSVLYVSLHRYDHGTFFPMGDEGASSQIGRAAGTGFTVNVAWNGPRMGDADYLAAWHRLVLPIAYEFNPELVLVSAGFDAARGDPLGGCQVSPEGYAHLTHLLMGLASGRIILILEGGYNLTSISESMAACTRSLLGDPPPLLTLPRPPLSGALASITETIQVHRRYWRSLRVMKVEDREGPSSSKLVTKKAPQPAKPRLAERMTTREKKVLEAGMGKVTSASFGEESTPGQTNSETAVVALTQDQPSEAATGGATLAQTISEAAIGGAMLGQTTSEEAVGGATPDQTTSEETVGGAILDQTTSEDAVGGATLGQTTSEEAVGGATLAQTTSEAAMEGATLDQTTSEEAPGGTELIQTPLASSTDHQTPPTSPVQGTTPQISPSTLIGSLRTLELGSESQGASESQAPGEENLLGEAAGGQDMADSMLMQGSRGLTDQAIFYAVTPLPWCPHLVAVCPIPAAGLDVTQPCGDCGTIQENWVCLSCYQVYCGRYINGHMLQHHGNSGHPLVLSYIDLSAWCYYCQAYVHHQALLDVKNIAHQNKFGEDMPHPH
# How it was run: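 Step one: pre-incubate recombinant human HDAC with test compound at 30 °C, with duration set per isoform. Step two: add fluorogenic-type acetyl-lysine substrate (FLUOR DE LYS, its Green variant, or trifluoroacetyl-L-lysine), 2× concentrated in Tris-HCl pH 8 buffer with NaCl, Tween-20 and glycerol. Step three: react at 30 °C.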
# [7] = Stability in rat plasma; format: in vitro ADME; details: after 4 hours, 37° C.
# How it was run: as §2
# [8] = test system: human PBMCs; assay: Mixed Lymphocytes Reaction (MLR) with human PBMCs (IFN-γ, TNF-α, IL-6); format: cell-based; details: PBMC, 144 h, two-way MLR, 6 days, 0.05 μM, negative = induction
# Protocol: In order to study HDAC6 inhibitors ability to inhibit the activation of allogenic T CD4+ cells, a Mixed Lymphocytes Reaction (MLR or mixed lymphocyte culture, CLM) assay was performed. This is a reaction involving blast transformation of in vitro cultured lymphocytes in the presence of allogeneic lymphocytes. There is the so-called “two-way” reaction wherein the two lymphocyte populations stimulate each other to proliferate, and the so-called “one way” reaction, wherein the proliferation of one of the two populations is inhibited by mitomycin C or irradiation, these cells provide proliferation stimulus (stimulator) to the so-called “responder” cells.
# Human peripheral blood mononuclear cells (PBMCs) used in MLR were obtained by Ficoll gradient separation from Buffy Coat of healthy donors.
# We used a two-way MLR. The cells from the two donors were plated at 1:1 ratio (allogenic stimulation) to the final concentration of 2×10^5 per well in U-bottom 96 well plates in RPMI 1640 medium with 10% FBS and antibiotics. As a control we individually plated the cells from each donor (singenic stimulus). The experiment for each inhibitor was set in deduplicate for allogeneic stimuli and in quintuplicate for singenic stimuli. The cells were cultured for 6 days in an incubator at 37° C.
# After 6 days the effect of the test compounds was evaluated by measuring the production of pro-inflammatory cytokines recognized to be characteristics of this assay.
# For this purpose, the culture supernatant was harvested and used for IFN-γ, TNF-α and IL-6 inflammatory cytokine assay.
# The JAK inhibitor ruxolitinib was used as the active reference compound in the test.
# Values in the table indicate the inhibition percentages. Negative values indicate an induction.
SMILES,IC50 [1] [µM],residual percentage in human plasma [2] [%],residual percentage in human S9 fraction [3] [%],IC50 [4] [µM],residual percentage in rat S9 fraction [5] [%],IC50 [6] [µM],residual percentage in rat plasma [7] [%],inhibition at 0.05 µM ([8]; read-out: MLR IFN-γ inhibition percentage) [%],inhibition at 0.05 µM ([8]; read-out: MLR IL-6 inhibition percentage) [%],inhibition at 0.05 µM ([8]; read-out: MLR TNF-α inhibition percentage) [%]
"O=C(NO)c1ccc(Cc2noc(-c3ccccc3)n2)cc1 [compound 189, 4-[(5-phenyl-1,2,4-oxadiazol-3-yl)methyl]benzenecarbohydroxamic acid]",1.05,100,72,0.291,5,0.009,78,–,–,–
"O=C(NO)c1ccc(Cc2nnc(-c3ccccc3)s2)cc1 [compound 190, 4-[(5-phenyl-1,3,4-thiadiazol-2-yl)methyl]benzenecarbohydroxamic acid]",0.983,99,64,0.333,9,0.003,73,–,–,–
"N#CC[C@H](C1CCCC1)n1cc(-c2ncnc3[nH]ccc23)cn1 [ruxolitinib, reference compound]",–,–,–,–,–,–,–,87.9,73.3,61.2
